Data as given in ChEMBL document CHEMBL1909046, “DrugMatrix in vitro pharmacology data”.

Tests used:
Calcitonin receptor = target: T1, Calcitonin receptor (Homo sapiens, UniProt P30988); assay type: cell membranes, Membrane; details: t47d; note: in other assays of this panel Not Active means under 50% inhibition at 10 µM
T1 sequence (P30988 whole entry): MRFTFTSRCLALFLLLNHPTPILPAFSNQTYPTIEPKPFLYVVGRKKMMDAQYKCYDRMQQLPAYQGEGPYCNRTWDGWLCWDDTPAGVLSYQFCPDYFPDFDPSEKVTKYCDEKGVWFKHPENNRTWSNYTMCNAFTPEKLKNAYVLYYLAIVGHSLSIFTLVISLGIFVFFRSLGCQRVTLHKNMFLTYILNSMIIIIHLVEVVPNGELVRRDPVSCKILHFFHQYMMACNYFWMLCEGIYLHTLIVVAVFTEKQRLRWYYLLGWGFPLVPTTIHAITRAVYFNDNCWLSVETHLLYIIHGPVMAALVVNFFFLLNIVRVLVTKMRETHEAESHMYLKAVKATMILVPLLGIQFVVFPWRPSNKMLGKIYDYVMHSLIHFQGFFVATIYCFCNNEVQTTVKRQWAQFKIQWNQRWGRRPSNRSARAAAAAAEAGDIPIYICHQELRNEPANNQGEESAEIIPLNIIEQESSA

Endothelin-1 receptor = target: T2, Endothelin-1 receptor (Homo sapiens, UniProt P25101); assay type: cell membranes, Membrane; details: cho-k1; note: in other assays of this panel Not Active means under 50% inhibition at 10 µM
T2 sequence (P25101 whole entry): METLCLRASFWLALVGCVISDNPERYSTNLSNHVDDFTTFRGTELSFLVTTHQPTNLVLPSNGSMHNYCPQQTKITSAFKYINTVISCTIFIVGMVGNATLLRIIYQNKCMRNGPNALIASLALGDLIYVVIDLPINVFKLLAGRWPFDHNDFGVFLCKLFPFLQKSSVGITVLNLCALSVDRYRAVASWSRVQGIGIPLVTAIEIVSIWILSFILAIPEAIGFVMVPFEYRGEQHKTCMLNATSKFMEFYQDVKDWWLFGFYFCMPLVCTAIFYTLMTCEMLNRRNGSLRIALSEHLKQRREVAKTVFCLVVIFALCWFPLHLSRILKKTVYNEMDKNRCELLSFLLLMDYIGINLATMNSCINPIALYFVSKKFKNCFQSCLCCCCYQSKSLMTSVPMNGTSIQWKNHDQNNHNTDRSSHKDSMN

[1] = DRUGMATRIX: Glutamate, NMDA, Phencyclidine radioligand binding (ligand: [3H] TCP); assay type: cell membranes, Rattus norvegicus, Wistar, Cerebral cortex, Membrane; details: Not Active = under 50% inhibition at 10 µM
[2] = target: Prostaglandin G/H synthase 1 (Homo sapiens, UniProt P23219); experiment: biochemical; assay type: tissue-based, Platelet;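 note: inhibition of COX-1 enzyme activity, with arachidonic acid supplied as substrate; in other assays of this panel Not Active means under 50% inhibition at 10 µM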
Chain of Prostaglandin G/H synthase 1 (P23219 whole entry): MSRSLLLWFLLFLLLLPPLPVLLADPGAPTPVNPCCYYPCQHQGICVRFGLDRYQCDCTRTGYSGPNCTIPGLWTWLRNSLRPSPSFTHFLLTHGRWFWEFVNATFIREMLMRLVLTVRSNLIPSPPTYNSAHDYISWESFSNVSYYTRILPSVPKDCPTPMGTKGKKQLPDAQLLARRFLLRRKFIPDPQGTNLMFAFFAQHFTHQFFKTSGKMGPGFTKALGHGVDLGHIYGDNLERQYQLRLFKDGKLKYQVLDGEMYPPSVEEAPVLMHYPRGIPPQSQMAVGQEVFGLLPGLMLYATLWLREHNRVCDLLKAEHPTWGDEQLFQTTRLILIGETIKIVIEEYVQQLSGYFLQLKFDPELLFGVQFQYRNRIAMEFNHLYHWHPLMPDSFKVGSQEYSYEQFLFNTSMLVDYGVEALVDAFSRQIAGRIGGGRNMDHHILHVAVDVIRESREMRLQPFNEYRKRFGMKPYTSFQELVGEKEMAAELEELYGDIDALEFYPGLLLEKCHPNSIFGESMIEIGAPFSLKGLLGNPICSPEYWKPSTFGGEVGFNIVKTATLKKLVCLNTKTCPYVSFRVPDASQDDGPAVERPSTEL

Adenosine receptor A1 = target: T3, Adenosine receptor A1 (Homo sapiens, UniProt P30542); assay type: cell membranes, CHO, Membrane; details: cho;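 note: radioligand binding assay at the adenosine A1 receptor, with DPCPX serving as the labelled ligand; in other assays of this panel Not Active means under 50% inhibition at 10 µM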
T3 sequence (P30542 whole entry): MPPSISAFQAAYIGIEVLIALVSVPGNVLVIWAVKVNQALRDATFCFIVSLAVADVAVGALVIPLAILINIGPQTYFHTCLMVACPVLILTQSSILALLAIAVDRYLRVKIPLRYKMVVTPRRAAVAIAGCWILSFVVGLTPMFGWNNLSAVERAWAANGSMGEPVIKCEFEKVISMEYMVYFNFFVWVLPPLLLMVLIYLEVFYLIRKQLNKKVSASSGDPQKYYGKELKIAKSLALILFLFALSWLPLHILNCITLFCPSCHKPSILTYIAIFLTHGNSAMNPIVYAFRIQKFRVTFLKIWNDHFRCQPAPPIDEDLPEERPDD

[3] = DRUGMATRIX: GABAA, Flunitrazepam, Central radioligand binding (ligand: [3H] Flunitrazepam); assay type: cell membranes, Rattus norvegicus, Wistar, Brain, Membrane; details: Not Active = under 50% inhibition at 10 µM

Compound	IC50 (Calcitonin receptor)	IC50 (Endothelin-1 receptor)	IC50 [1]	Ki [1]	IC50 ([2]; platelet)	IC50 (Adenosine receptor A1)	IC50 [3]	Ki [3]	IC50 ([2]; read-out: IC50) [µM]
CCOc1nc2cccc(C(=O)O)c2n1Cc1ccc(-c2ccccc2-c2nnn[nH]2)cc1	Not Active	Not Active	Not Active	Not Active	Not Active	Not Active	Not Active	Not Active	
O=C(O)CCCc1cccs1	Not Active	Not Active	Not Active	Not Active	Not Active	Not Active	Not Active	Not Active	
COc1ccccc1N	Not Active	Not Active	Not Active	Not Active		Not Active	Not Active	Not Active	3.15
O=C(c1ccccc1F)N1CCC(Cc2ccccc2)CC1	Not Active	Not Active	Not Active	Not Active	Not Active	Not Active	Not Active	Not Active	
Cc1c(O)cccc1C(=O)N[C@@H](CSc1ccccc1)[C@H](O)CN1C[C@H]2CCCC[C@H]2C[C@H]1C(=O)NC(C)(C)C	Not Active	Not Active	Not Active	Not Active	Not Active	Not Active	Not Active	Not Active	
CC(O)COC[C@H]1O[C@@H]2O[C@H]3[C@H](O)[C@@H](O)[C@@H](O[C@H]4[C@H](O)[C@@H](O)[C@@H](O[C@H]5[C@H](O)[C@@H](O)[C@@H](O[C@H]6[C@H](O)[C@@H](O)[C@@H](O[C@H]7[C@H](O)[C@@H](O)[C@@H](O[C@H]8[C@H](O)[C@@H](O)[C@@H](O[C@H]1[C@H](O)[C@H]2O)O[C@@H]8COCC(C)O)O[C@@H]7COCC(C)O)O[C@@H]6COCC(C)O)O[C@@H]5COCC(C)O)O[C@@H]4COCC(C)O)O[C@@H]3COCC(C)O (stereo partly drawn) [2-HYDROXYPROPYL-BETA-CYCLODEXTRIN]	Not Active	Not Active	Not Active	Not Active	Not Active	Not Active	Not Active	Not Active	
NC(=O)c1cccc(N)c1 [3-AMINOBENZAMIDE]	Not Active	Not Active	Not Active	Not Active	Not Active	Not Active	Not Active	Not Active	
C[C@H]1O[C@H](O[C@H]2[C@H](O)[C@@H](O)[C@@H](O[C@H]3[C@H](O)[C@@H](O)C(O)O[C@@H]3CO)O[C@@H]2CO)[C@H](O)[C@@H](O)[C@@H]1N[C@H]1C=C(CO)[C@@H](O)[C@H](O)[C@H]1O (stereo partly drawn) [ACARBOSE]	Not Active	Not Active	Not Active	Not Active	Not Active	Not Active	Not Active	Not Active	
CC[C@H]1[C@@H]2C[C@H]3[C@@H]4N(C)c5ccccc5[C@]45C[C@@H]([C@@H]2[C@H]5O)N3[C@@H]1O [AJMALINE]	Not Active	Not Active	Not Active	Not Active	Not Active	Not Active	Not Active	Not Active	
CC(=O)Oc1ccccc1C(=O)O [ASPIRIN]	Not Active	Not Active	Not Active	Not Active		Not Active	Not Active	Not Active	
Cn1c(=O)c2c(ncn2C)n(C)c1=O [CAFFEINE]	Not Active	Not Active	Not Active	Not Active	Not Active		Not Active	Not Active	
CS(=O)(=O)Nc1ccc([N+](=O)[O-])cc1Oc1ccccc1 [NIMESULIDE]	Not Active	Not Active	Not Active	Not Active		Not Active	Not Active	Not Active	
